Results as given in patent US11365187B2, “Pesticidally active pyrazole derivatives” (SYNGENTA PARTICIPATIONS AG, priority 2017, dated 2022).
Read-outs that look alike come from different tables or passages of the source.

Experiments:
Assay type in all cases: in vivo
[1] = system: Euschistus heros (Neotropical Brown Stink Bug); assay: Euschistus heros feeding/contact activity on soybean leaves; conditions: 120 h
Procedure: Euschistus heros (Neotropical Brown Stink Bug): Feeding/contact activity
(§1) Soybean leaves on agar in 24-well microtiter plates were sprayed with aqueous test solutions prepared from 10′000 ppm DMSO stock solutions. After drying the leaves were infested with N2 nymphs. The samples were assessed for mortality 5 days after infestation.

[2] = system: Spodoptera littoralis (Egyptian cotton leaf worm); assay: Spodoptera littoralis feeding/contact activity on cotton leaf discs; conditions: foliar, 72 h
Procedure: Spodoptera littoralis (Egyptian cotton leaf worm): Feeding/contact activity
Cotton leaf discs were placed onto agar in 24-well microtiter plates and sprayed with aqueous test solutions prepared from 10′000 ppm DMSO stock solutions. After drying the leaf discs were infested with five L1 larvae. The samples were assessed for mortality 3 days after infestation. […] 2, 3, 4, 5, 6, 7, 8, 9, 10, 11, 12, 13, 14, 15, 16, 17, 18, 19, 20, 21, 22, 23, 24, 25, 26, 27, 28 and 29.

[3] = system: Tetranychus urticae (Two-spotted spider mite); assay: Tetranychus urticae feeding/contact activity on bean leaf discs; conditions: foliar, 192 h, read-out: mortality on mixed population (mobile stages)
Procedure: Tetranychus urticae (Two-spotted spider mite): Feeding/contact activity
as §1, with “Bean leaf discs” for “Soybean leaves”, “leaf discs” for “leaves”, “a mite population of mixed ages.” for “N2 nymphs.”, “on mixed population (mobile stages) 8” for “5”

[4] = system: Myzus persicae (Green peach aphid); assay: Myzus persicae feeding/contact activity on sunflower leaf discs; conditions: foliar, 144 h
Procedure: Myzus persicae (Green peach aphid): Feeding/Contact activity
Sunflower leaf discs were placed onto agar in a 24-well microtiter plate and sprayed with aqueous test solutions prepared from 10′000 ppm DMSO stock solutions. After drying, the leaf discs were infested with an aphid population of mixed ages. The samples were assessed for mortality 6 days after infestation.

[5] = system: Plutella xylostella (Diamond back moth); assay: Plutella xylostella feeding/contact activity on artificial diet; conditions: 120 h
Procedure: Plutella xylostella (Diamond back moth): Feeding/contact activity
24-well microtiter plates with artificial diet were treated with aqueous test solutions prepared from 10′000 ppm DMSO stock solutions by pipetting. After drying, the plates were infested with L2 larvae (10 to 15 per well). The samples were assessed for mortality 5 days after infestation.

[6] = application rate 200 ppm, N2 nymphs, assessed 5 days after infestation, read-out: mortality
[7] = application rate 200 ppm, L1 larvae, assessed 3 days after infestation, read-out: mortality
[8] = application rate 200 ppm, mite population of mixed ages, assessed 8 days after infestation
[9] = application rate 200 ppm, aphid population of mixed ages, assessed 6 days after infestation, read-out: mortality
[10] = application rate 200 ppm, L2 larvae, assessed 5 days after infestation, read-out: mortality

Measured: mortality at 200 ppm

COC(=O)N(C(=O)c1cc(-c2cnn(-c3c(OC(F)F)c(C(F)(C(F)(F)F)C(F)(F)F)nn3C)c2)ccc1Cl)C1CC1 [Example 23, methyl N-[2-chloro-5-[1-[4-(difluoromethoxy)-2-methyl-5-[1,2,2,2-tetrafluoro-1-(trifluoromethyl)ethyl]pyrazol-3-yl]pyrazol-4-yl]benzoyl]-N-cyclopropyl-carbamate]
≥ 80%: [1] | [2] | [3] | [4] | [5]

COCN(C(=O)c1cc(-c2cnn(-c3c(OC(F)F)c(C(F)(C(F)(F)F)C(F)(F)F)nn3C)c2)ccc1Cl)C1(C#N)CC1 [Example 9, 2-chloro-N-(1-cyanocyclopropyl)-5-[1-[4-(difluoromethoxy)-2-methyl-5-[1,2,2,2-tetrafluoro-1-(trifluoromethyl)ethyl]pyrazol-3-yl]pyrazol-4-yl]-N-(methoxymethyl)benzamide]
≥ 80%: [1]; [6] | [2]; [7] | [3]; [8] | [4]; [9] | [5]; [10]

CCN(C(=O)c1cc(-c2cnn(-c3c(OC(F)F)c(C(F)(C(F)(F)F)C(F)(F)F)nn3C)c2)ccc1Cl)C1CC1 [Example 26, 2-chloro-N-cyclopropyl-5-[1-[4-(difluoromethoxy)-2-methyl-5-[1,2,2,2-tetrafluoro-1-(trifluoromethyl)ethyl]pyrazol-3-yl]pyrazol-4-yl]-N-ethyl-benzamide]
≥ 80%: [1]; [6] | [2]; [7] | [3]; [8] | [4]; [9] | [5]; [10]

Cn1nc(C(F)(C(F)(F)F)C(F)(F)F)c(OC(F)F)c1-n1cc(-c2ccc(Cl)c(C(=O)N(CC#N)C3(C#N)CC3)c2)cn1 [Example 11, 2-chloro-N-(1-cyanocyclopropyl)-N-(cyanomethyl)-5-[1-[4-(difluoromethoxy)-2-methyl-5-[1,2,2,2-tetrafluoro-1-(trifluoromethyl)ethyl]pyrazol-3-yl]pyrazol-4-yl]benzamide]
≥ 80%: [1]; [6] | [2]; [7] | [3]; [8] | [4]; [9] | [5]; [10]

CCCN(C(=O)c1cc(-c2cnn(-c3c(OC(F)F)c(C(F)(C(F)(F)F)C(F)(F)F)nn3C)c2)ccc1Cl)C1(C#N)CC1 [Example 14, 2-chloro-N-(1-cyanocyclopropyl)-5-[1 - [4-(difluoromethoxy)-2-methyl-5-[1,2,2,2-tetrafluoro-1-(trifluoromethyl)ethyl]pyrazol-3-yl]pyrazol-4-yl]-N-propyl-benzamide]
≥ 80%: [1]; [6] | [2]; [7]

CCOCCN(C(=O)c1cc(-c2cnn(-c3c(OC(F)F)c(C(F)(C(F)(F)F)C(F)(F)F)nn3C)c2)ccc1Cl)C1(C#N)CC1 [Example 13, 2-chloro-N-(1-cyanocyclopropyl)-5-[1-[4-(difluoromethoxy)-2-methyl-5-[1,2,2,2-tetrafluoro-1-(trifluoromethyl)ethyl]pyrazol-3-yl]pyrazol-4-yl]-N-(2-ethoxyethyl)benzamide]
≥ 80%: [2]; [7] | [3]; [8] | [4]; [9] | [5]; [10]

Cn1nc(C(F)(C(F)(F)F)C(F)(F)F)c(OC(F)F)c1-n1cc(-c2ccc(Cl)c(C(=O)N(C(=O)OCCl)C3(C#N)CC3)c2)cn1 [Example 29, chloromethyl N-[2-chloro-5-[1-[4-(difluoromethoxy)-2-methyl-5-[1,2,2,2-tetrafluoro-1-(trifluoromethyl)ethyl]pyrazol-3-yl]pyrazol-4-yl]benzoyl]-N-(1-cyanocyclopropyl)carbamate]
≥ 80%: [1] | [2] | [3] | [4] | [5]

CCOCN(C(=O)c1cc(-c2cnn(-c3c(OC(F)F)c(C(F)(C(F)(F)F)C(F)(F)F)nn3C)c2)ccc1Cl)C1CC1 [Example 27, 2-chloro-N-cyclopropyl-5-[1-[4-(difluoromethoxy)-2-methyl-5-[1,2,2,2-tetrafluoro-1-(trifluoromethyl)ethyl]pyrazol-3-yl]pyrazol-4-yl]-N-(ethoxymethyl)benzamide]
≥ 80%: [1]; [6] | [2]; [7] | [3]; [8] | [4]; [9] | [5]; [10]

CC(C)OCN(C(=O)c1cc(-c2cnn(-c3c(OC(F)F)c(C(F)(C(F)(F)F)C(F)(F)F)nn3C)c2)ccc1Cl)C1(C#N)CC1 [Example 2, 2-chloro-N-(1-cyanocyclopropyl)-5-[1-[4-(difluoromethoxy)-2-methyl-5-[1,2,2,2-tetrafluoro-1-(trifluoromethyl)ethyl]pyrazol-3-yl]pyrazol-4-yl]-N-(isopropoxymethyl)benzamide]
≥ 80%: [1]; [6] | [2]; [7] | [3]; [8] | [4]; [9] | [5]; [10]

CC(C)OC(=O)N(C(=O)c1cc(-c2cnn(-c3c(OC(F)F)c(C(F)(C(F)(F)F)C(F)(F)F)nn3C)c2)ccc1Cl)C1CC1 [Example 24, isopropyl N-[2-chloro-5-[1-[4-(difluoromethoxy)-2-methyl-5-[1,2,2,2-tetrafluoro-1-(trifluoromethyl)ethyl]pyrazol-3-yl]pyrazol-4-yl]benzoyl]-N-cyclopropyl-carbamate]
≥ 80%: [1] | [2] | [3] | [4] | [5]

COCC(=O)N(C(=O)c1cc(-c2cnn(-c3c(OC(F)F)c(C(F)(C(F)(F)F)C(F)(F)F)nn3C)c2)ccc1Cl)C1CC1 [Example 22, 2-chloro-N-cyclopropyl-5-[1-[-4-(difluoromethoxy)-2-methyl-5-[1,2,2,2-tetrafluoro-1-(trifluoromethyl)ethyl]pyrazol-3-yl]pyrazol-4-yl]-N-(2-methoxyacetyl)benzamide]
≥ 80%: [1]; [6] | [2]; [7] | [3]; [8] | [4]; [9] | [5]; [10]

CCOCN(C(=O)c1cc(-c2cnn(-c3c(OC(F)F)c(C(F)(C(F)(F)F)C(F)(F)F)nn3C)c2)ccc1Cl)C1(C#N)CC1 [Example 10, 2-chloro-N-(1-cyanocyclopropyl)-5-[1-[4-(difluoromethoxy)-2-methyl-5-[1,2,2,2-tetrafluoro-1-(trifluoromethyl)ethyl]pyrazol-3-yl]pyrazol-4-yl]-N-(ethoxymethyl)benzamide]
≥ 80%: [1]; [6] | [2]; [7] | [3]; [8] | [4]; [9] | [5]; [10]

CC(C)OC(=O)N(C(=O)c1cc(-c2cnn(-c3c(OC(F)F)c(C(F)(C(F)(F)F)C(F)(F)F)nn3C)c2)ccc1Cl)C1(C#N)CC1 [Example 20, isopropyl N-[2-chloro-5-[1-[4-(difluoromethoxy)-2-methyl-5-[1,2,2,2-tetrafluoro-1-(trifluoromethyl)ethyl]pyrazol-3-yl]pyrazol-4-yl]benzoyl]-N-(1-cyanocyclopropyl)carbamate]
≥ 80%: [1] | [2] | [4] | [5]

CC(C)CN(C(=O)c1cc(-c2cnn(-c3c(OC(F)F)c(C(F)(C(F)(F)F)C(F)(F)F)nn3C)c2)ccc1Cl)C1(C#N)CC1 [Example 21, 2-chloro-N-(1-cyanocyclopropyl)-5-[1-[4-(difluoromethoxy)-2-methyl-5-[1,2,2,2-tetrafluoro-1-(trifluoromethyl)ethyl]pyrazol-3-yl]pyrazol-4-yl]-N-isobutyl-benzamide]
≥ 80%: [1]; [6] | [2]; [7]

CC(C)N(C(=O)c1cc(-c2cnn(-c3c(OC(F)F)c(C(F)(C(F)(F)F)C(F)(F)F)nn3C)c2)ccc1Cl)C1(C#N)CC1 [Example 5, 2-chloro-N-(1-cyanocyclopropyl)-5-[1-[4-(difluoromethoxy)-2-methyl-5-[1,2,2,2-tetrafluoro-1-(trifluoromethyl)ethyl]pyrazol-3-yl]pyrazol-4-yl]-N-isopropyl-benzamide]
≥ 80%: [1]; [6] | [2]; [7]
